ChEMBL document CHEMBL4177607, “Antibacterial constituents of the plant family Amaryllidaceae” (2017)
In brackets after ≈: the same amount, converted by molar mass.

Experiments:
Assay type in all cases: functional
Flavobacterium columnare [1] = assay: Antibacterial activity against Flavobacterium columnare ALM-00-173 after 24 hrs; settings: ALM-00-173, 24 h
Flavobacterium columnare [2] = assay: Antibacterial activity against Flavobacterium columnare BioMed after 24 hrs
Staphylococcus aureus [3] = assay: Antibacterial activity against Staphylococcus aureus
Edwardsiella ictaluri = assay: Antibacterial activity against Edwardsiella ictaluri after 24 hrs
Escherichia coli [4] = assay: Antibacterial activity against Escherichia coli assessed as diameter of inhibition zone at 1 mg/ml; settings: read-out: DIZ
Staphylococcus aureus [5] = assay: Antibacterial activity against Staphylococcus aureus assessed as diameter of inhibition zone at 1 mg/ml; settings: read-out: DIZ
Rhodococcus fascians = assay: Antibacterial activity against Corynebacterium fascians assessed as diameter of inhibition zone at 10 mM after 48 to 72 hrs by paper disc method; settings: Rhodococcoides fascians; read-out: DIZ
Staphylococcus aureus [6] = assay: Antibacterial activity against Staphylococcus aureus assessed as diameter of inhibition zone at 3 mg/ml; settings: read-out: DIZ
[7] = test system: Agrobacterium tumefaciens; assay: Antibacterial activity against Agrobacterium tumefaciens assessed as inhibition of crown gall tumor initiation at 1 mg/ml
Staphylococcus aureus [8] = assay: Antibacterial activity against Staphylococcus aureus incubated overnight by two-fold serial dilution method
Escherichia coli [9] = assay: Antibacterial activity against Escherichia coli incubated overnight by two-fold serial dilution method
Escherichia coli [10] = assay: Antibacterial activity against Escherichia coli assessed as diameter of inhibition zone at 3 mg/ml; settings: read-out: DIZ
Shigella flexneri = assay: Antibacterial activity against Shigella flexneri after 24 hrs by broth microdilution method
Pseudomonas aeruginosa = assay: Antibacterial activity against Pseudomonas aeruginosa after 24 hrs by broth microdilution method
Escherichia coli [11] = assay: Antibacterial activity against Escherichia coli after 24 hrs by broth microdilution method

Question: What does the source list for CC(=O)O[C@H]1C=C2CCN3Cc4cc5c(cc4[C@H]([C@@H]1O)[C@@H]23)OCO5?
Answer: MIC (Flavobacterium columnare [1]): 16.6 µg/mL; MIC (Flavobacterium columnare [2]): 3.3 µg/mL

Question: With Cl.O[C@H]1[C@H]2c3cc4c(cc3CN3CCC(=C[C@@H]1O)[C@H]23)OCO4 as the molecule, how does the MIC (Flavobacterium columnare [1]) read?
Answer: 3 µg/mL

Question: And the MIC (Flavobacterium columnare [2])?
Answer: 32 µg/mL

Question: And the MIC (Staphylococcus aureus [3])?
Answer: > 32 µg/mL

Question: What about the MIC (Edwardsiella ictaluri) of the same molecule?
Answer: > 32 µg/mL

Question: How did the MIC (Flavobacterium columnare [1]) turn out when O=C(O[C@H]1C=C2CCN3Cc4cc5c(cc4[C@H]([C@@H]1OC(=O)c1ccccc1Cl)[C@@H]23)OCO5)c1cccc(Cl)c1 was run?
Answer: 31 µg/mL

Question: What about the MIC (Flavobacterium columnare [2]) of the same molecule?
Answer: 5.6 µg/mL

Question: For Cc1ccc(C(=O)O[C@H]2C=C3CCN4Cc5cc6c(cc5[C@H]([C@@H]2O)[C@@H]34)OCO6)cc1, which MIC (Flavobacterium columnare [1]) is on record?
Answer: 4.7 µg/mL

Question: And the MIC (Flavobacterium columnare [2])?
Answer: 22.9 µg/mL

Question: O=C(O[C@H]1C=C2CCN3Cc4cc5c(cc4[C@H]([C@@H]1O)[C@@H]23)OCO5)c1ccc(Cl)cc1 was tested. Which MIC (Flavobacterium columnare [1]) did it give?
Answer: 42.6 µg/mL

Question: What about the MIC (Flavobacterium columnare [2]) of the same molecule?
Answer: 42.6 µg/mL

Question: For O=C1N[C@@H]2C(=C[C@H](O)[C@@H](O)[C@H]2O)c2cc3c(cc21)OCO3, which zone of inhibition at 1000 µg/mL (Escherichia coli [4]) is on record?
Answer: 12 mm

Question: And the zone of inhibition at 1000 µg/mL (Staphylococcus aureus [5])?
Answer: 11 mm

Question: What does the source list for Oc1cc2c3c(c1)c1cc4c(cc1c[n+]3CC2)OCO4?
Answer: zone of inhibition at 10000 µM (Rhodococcus fascians): 0 mm; MIC (Flavobacterium columnare [1]): 1 µM; MIC (Flavobacterium columnare [2]): 10 µM

Question: Which MIC (Flavobacterium columnare [1]) does the source give for O=C1C=C2CCN3Cc4cc5c(cc4[C@H]([C@@H]1O)[C@@H]23)OCO5 here?
Answer: > 26 µg/mL

Question: And the MIC (Flavobacterium columnare [2])?
Answer: > 26 µg/mL

Question: And the MIC (Staphylococcus aureus [3])?
Answer: > 26 µg/mL

Question: What about the MIC (Edwardsiella ictaluri) of the same molecule?
Answer: > 26 µg/mL

Question: O[C@@H]1C=C[C@]23c4cc5c(cc4C[N@@](C[C@@H]2O)[C@H]3C1)OCO5 was tested. Which zone of inhibition at 3000 µg/mL (Staphylococcus aureus [6]) did it give?
Answer: 17 mm

Question: How did the inhibition at 1000 µg/mL [7] turn out when O=C1N[C@@H]2C(=C[C@H](O)[C@@H](O)[C@H]2O[C@@H]2O[C@H](CO)[C@@H](O)[C@H](O)[C@H]2O)c2cc3c(c(O)c21)OCO3 was run?
Answer: 53%

Question: For Oc1cc2c3c(c1)-c1cc4c(cc1CN3CC2)OCO4, which zone of inhibition at 10000 µM (Rhodococcus fascians) is on record?
Answer: 0 mm

Question: For COc1ccc2c3c1O[C@H]1C[C@@H](O)C=C[C@@]31CCN(C)C2 [GALANTAMINE], which MIC (Staphylococcus aureus [8]) is on record?
Answer: 2050 µg/mL (≈ 7130 µM)

Question: And the MIC (Escherichia coli [9])?
Answer: 2050 µg/mL (≈ 7130 µM)

Question: Which zone of inhibition at 1000 µg/mL (Escherichia coli [4]) does the source give for COc1cc2c(cc1OC)[C@H]1[C@H]3C(=CC[C@H]1O[C@@H]2OC)CCN3C here?
Answer: 14 mm

Question: What about the zone of inhibition at 1000 µg/mL (Staphylococcus aureus [5]) of the same molecule?
Answer: 14 mm

Question: With COC1=C[C@@H]2CCN3Cc4cc5c(cc4[C@@H]([C@H]23)[C@@H]1O)OCO5 [AMARBELLISINE] as the molecule, how does the zone of inhibition at 3000 µg/mL (Staphylococcus aureus [6]) read?
Answer: 22 mm

Question: What about the zone of inhibition at 3000 µg/mL (Escherichia coli [10]) of the same molecule?
Answer: 22 mm

Question: O=C(O[C@H]1[C@H]2c3cc4c(cc3CN3CCC(=C[C@@H]1OC(=O)c1cccc(Cl)c1)[C@H]23)OCO4)c1cccc(Cl)c1 was tested. Which MIC (Flavobacterium columnare [1]) did it give?
Answer: 5.6 µg/mL

Question: What about the MIC (Flavobacterium columnare [2]) of the same molecule?
Answer: 5.6 µg/mL

Question: For COc1cc2c(c(O)c1C)C(=O)C(O)C(c1ccc(O)cc1)O2 (stereo not given), which MIC (Shigella flexneri) is on record?
Answer: 4 µg/mL (≈ 12.6 µM)

Question: And the MIC (Pseudomonas aeruginosa)?
Answer: 32 µg/mL (≈ 101 µM)

Question: What about the MIC (Escherichia coli [11]) of the same molecule?
Answer: 16 µg/mL (≈ 50.6 µM)

Question: Which results are given for Cc1cccc(C(=O)O[C@H]2[C@H]3c4cc5c(cc4CN4CCC(=C[C@@H]2OC(=O)c2cccc(C)c2)[C@H]34)OCO5)c1?
Answer: MIC (Flavobacterium columnare [1]): 5.2 µg/mL; MIC (Flavobacterium columnare [2]): 28.8 µg/mL

Question: How did the MIC (Flavobacterium columnare [1]) turn out when Cc1ccc(C(=O)O[C@H]2[C@H]3c4cc5c(cc4CN4CCC(=C[C@@H]2OC(=O)c2ccc(C)cc2)[C@H]34)OCO5)cc1 was run?
Answer: 46.4 µg/mL

Question: What about the MIC (Flavobacterium columnare [2]) of the same molecule?
Answer: 22.9 µg/mL

Question: Which MIC (Flavobacterium columnare [1]) does the source give for COc1cc2c[n+]3c4c(cc([O-])cc4c2cc1O)CC3 here?
Answer: 100 µM

Question: And the MIC (Flavobacterium columnare [2])?
Answer: 10 µM

Question: How did the MIC (Flavobacterium columnare [1]) turn out when Cc1ccc(C(=O)O[C@H]2[C@H]3c4cc5c(cc4CN4CCC(=C[C@@H]2OC(=O)c2ccc(C)cc2C)[C@H]34)OCO5)c(C)c1 was run?
Answer: 5.5 µg/mL

Question: And the MIC (Flavobacterium columnare [2])?
Answer: 30.4 µg/mL

Question: How did the zone of inhibition at 10000 µM (Rhodococcus fascians) turn out when c1cc2c3c(c1)c1cc4c(cc1c[n+]3CC2)OCO4 [ANHYDROLYCORINIUM CHLORIDE] was run?
Answer: 30 mm

Question: Which MIC (Flavobacterium columnare [1]) does the source give for O=C(O[C@H]1[C@H]2c3cc4c(cc3CN3CCC(=C[C@@H]1OC(=O)c1ccc(Cl)cc1)[C@H]23)OCO4)c1ccc(Cl)cc1 here?
Answer: 31 µg/mL

Question: What about the MIC (Flavobacterium columnare [2]) of the same molecule?
Answer: 5.6 µg/mL

Question: How did the MIC (Shigella flexneri) turn out when CCCCCCCC(=O)Oc1c(C)c(O)c2c(c1C)O[C@H](c1ccc(O)cc1)CC2=O was run?
Answer: 16 µg/mL (≈ 37.5 µM)

Question: And the MIC (Pseudomonas aeruginosa)?
Answer: 32 µg/mL (≈ 75 µM)

Question: What about the MIC (Escherichia coli [11]) of the same molecule?
Answer: 16 µg/mL (≈ 37.5 µM)

Question: Oc1ccc2c3c1c1cc4c(cc1c[n+]3CC2)OCO4 was tested. Which zone of inhibition at 10000 µM (Rhodococcus fascians) did it give?
Answer: 10 mm

Question: Which results are given for O[C@@H]1C=C[C@]23CCN(Cc4cc5c(cc42)OCO5)[C@H]3C1 [VITTATINE]?
Answer: zone of inhibition at 3000 µg/mL (Staphylococcus aureus [6]): 19 mm; zone of inhibition at 3000 µg/mL (Escherichia coli [10]): 22 mm

Question: Which results are given for CC[C@H](CC[C@@H](C)[C@H]1CC[C@H]2[C@@H]3CC=C4C[C@@H](O)CC[C@]4(C)[C@H]3CC[C@]12C)C(C)C [BETA-SITOSTEROL]?
Answer: zone of inhibition at 1000 µg/mL (Escherichia coli [4]): 13 mm; zone of inhibition at 1000 µg/mL (Staphylococcus aureus [5]): 15 mm

Question: How did the MIC (Flavobacterium columnare [1]) turn out when CC(=O)O[C@H]1[C@H]2c3cc4c(cc3CN3CCC(=C[C@@H]1OC(C)=O)[C@H]23)OCO4 was run?
Answer: 4 µg/mL

Question: And the MIC (Flavobacterium columnare [2])?
Answer: 37 µg/mL

Question: And the MIC (Staphylococcus aureus [3])?
Answer: > 37 µg/mL

Question: And the MIC (Edwardsiella ictaluri)?
Answer: > 37 µg/mL

Question: How did the MIC (Staphylococcus aureus [3]) turn out when CC(=O)O[C@H]1[C@H]2c3cc4c(cc3CN3CCC(=C[C@@H]1O)[C@H]23)OCO4 was run?
Answer: > 33 µg/mL

Question: What about the MIC (Edwardsiella ictaluri) of the same molecule?
Answer: > 33 µg/mL
